Several values for one entry are separate records, joined by “and”; a condition that tells them apart may be missing. Equal values may be shown once.
Experiments:
DNMT1 = DNMT1 (Homo sapiens, UniProt P26358); experiment: Epigenetic panel (BPS Bioscience); DNMT1 TR-FRET IC50; assay type: biochemical
Protocol: DNMT1 and G9a IC50 values were measured using time-resolved fluorescence energy transfer assays, as described previously[18],[25],[26].
Binding experiments were performed in duplicate at a concentration of 10 μM.

HDAC8 = biological target: T1, HDAC8 (Homo sapiens, UniProt Q9BY41); experiment: HDAC assay (Eurofins); assay type: biochemical
T1 construct: purchased Eurofins (contracted assay service)
T1 sequence (Q9BY41 1-377): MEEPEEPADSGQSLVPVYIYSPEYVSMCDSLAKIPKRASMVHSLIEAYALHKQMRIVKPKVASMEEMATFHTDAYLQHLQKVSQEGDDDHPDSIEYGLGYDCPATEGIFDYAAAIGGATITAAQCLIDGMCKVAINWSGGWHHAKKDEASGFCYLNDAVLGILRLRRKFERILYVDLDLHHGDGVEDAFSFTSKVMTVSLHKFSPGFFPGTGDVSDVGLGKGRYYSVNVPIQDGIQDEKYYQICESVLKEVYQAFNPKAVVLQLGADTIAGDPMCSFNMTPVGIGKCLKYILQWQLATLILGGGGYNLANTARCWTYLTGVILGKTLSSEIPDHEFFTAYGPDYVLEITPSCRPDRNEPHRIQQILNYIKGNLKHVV

HDAC11 = biological target: T2, HDAC11 (Homo sapiens, UniProt Q96DB2); experiment: HDAC11 Eurofins assay; assay type: biochemical
T2 sequence (Q96DB2 1-347): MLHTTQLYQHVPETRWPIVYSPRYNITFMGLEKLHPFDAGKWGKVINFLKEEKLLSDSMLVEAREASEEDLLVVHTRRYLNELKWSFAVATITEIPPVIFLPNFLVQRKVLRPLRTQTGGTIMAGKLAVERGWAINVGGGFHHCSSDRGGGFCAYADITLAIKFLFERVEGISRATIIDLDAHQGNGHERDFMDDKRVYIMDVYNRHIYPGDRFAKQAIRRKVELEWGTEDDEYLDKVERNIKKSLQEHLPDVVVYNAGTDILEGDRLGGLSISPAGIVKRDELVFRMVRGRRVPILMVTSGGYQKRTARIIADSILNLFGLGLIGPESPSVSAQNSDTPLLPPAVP

Kinetic solubility = assay type: physicochemical; conditions: PBS buffer, aqueous buffer, kinetic from dmso stock, pH 7.4, PBS
Protocol: This study was conducted at Wuxi (http://www.wuxi.com/). Stock solutions of test compounds (10 mM; 100% DMSO) and 490 μL of PBS buffer at pH = 7.4 were added in the lower chamber of Whatman’s Mini-Uniprep vials. After vortex mixing for ≥2 min, the vials were shaken at 800 rpm for 24 h and finally centrifuged at 1520 g for 20 min. The concentration of the filtrate was quantified by HPLC (calibration curve from 1.5624 μM to 200 μM). Amiodarone hydrochloride, carbamazepine and chloramphenicol were used as controls.

[1] = system: ML-2 xenograft in BALB/cA Rag2-/-γc-/- mice; experiment: Subcutaneous xenograft model (tumor volume, CD11b q-PCR, H3Ac, body weight); assay type: in vivo, mouse; conditions: for Tumor volume: ML-2 subcutaneous xenograft, individual mice (Fig 3B), in mm³; for body weight of mice: subcutaneous ML-2 AML mouse model, individual mice
Protocol: (§1) The subcutaneous xenograft models of ML-2 and MV4-11 derived cells, 5 × 10^6 and 10 × 10^6 cells, respectively, diluted in 100 µL of saline solution were subcutaneously inoculated in the back left flank of female BALB/cA Rag2^−/−γc^−/− mice. When tumors became palpable, the mice were randomized into three groups: vehicle, CM-444 and CM-1758, (eight animals/group). Treatment with 10 mg/kg of CM-444 or CM-1758 i.p. was started 4 days after injection when all mice presented subcutaneous tumors and was administered for 5 consecutive days followed by 2 resting days over 3 weeks for the ML-2 model or daily for 2 weeks for the MV4-11 model. The control group received only 80% saline solution, 10% DMSO […] 10% Tween 20 (diluents of CM-444 and CM-1758). Tumor size was analyzed every 2–3 days using the following method: […], where D and d corresponded to the longest and shortest diameter, respectively. The maximal tumor size/burden permitted by the Animal Care and Ethics Committee of the University of Navarra is 2000 mm^3. This maximal tumor size/burden was not exceeded in any case. ML-2 and MV4-11 tumors were explanted for differentiation and global histone acetylation analysis. Histones were extracted, and a western blot of H3Ac was performed as described above. For the differentiation study, RNA was extracted, and q-PCR of CD11b was performed as described above (CD11b sequence primer can be found in Supplementary Table 10).

[2] = system: MV4-11 xenograft in BALB/cA Rag2-/-γc-/- mice; experiment: as above; assay type: in vivo, mouse; conditions: for Tumor volume: MV4-11 subcutaneous xenograft, in mm³; for Tumor volume / body weight of mice: individual mice; for body weight of mice: subcutaneous MV4-11 AML mouse model
Protocol: as §1

[3] = system: MOLM-13 i.v. in BALB/cA Rag2-/-γc-/- mice; experiment: Intravenous xenograft model (survival, CD11b in blood, body weight); assay type: in vivo, mouse

Chain of DNMT1 (P26358 whole entry): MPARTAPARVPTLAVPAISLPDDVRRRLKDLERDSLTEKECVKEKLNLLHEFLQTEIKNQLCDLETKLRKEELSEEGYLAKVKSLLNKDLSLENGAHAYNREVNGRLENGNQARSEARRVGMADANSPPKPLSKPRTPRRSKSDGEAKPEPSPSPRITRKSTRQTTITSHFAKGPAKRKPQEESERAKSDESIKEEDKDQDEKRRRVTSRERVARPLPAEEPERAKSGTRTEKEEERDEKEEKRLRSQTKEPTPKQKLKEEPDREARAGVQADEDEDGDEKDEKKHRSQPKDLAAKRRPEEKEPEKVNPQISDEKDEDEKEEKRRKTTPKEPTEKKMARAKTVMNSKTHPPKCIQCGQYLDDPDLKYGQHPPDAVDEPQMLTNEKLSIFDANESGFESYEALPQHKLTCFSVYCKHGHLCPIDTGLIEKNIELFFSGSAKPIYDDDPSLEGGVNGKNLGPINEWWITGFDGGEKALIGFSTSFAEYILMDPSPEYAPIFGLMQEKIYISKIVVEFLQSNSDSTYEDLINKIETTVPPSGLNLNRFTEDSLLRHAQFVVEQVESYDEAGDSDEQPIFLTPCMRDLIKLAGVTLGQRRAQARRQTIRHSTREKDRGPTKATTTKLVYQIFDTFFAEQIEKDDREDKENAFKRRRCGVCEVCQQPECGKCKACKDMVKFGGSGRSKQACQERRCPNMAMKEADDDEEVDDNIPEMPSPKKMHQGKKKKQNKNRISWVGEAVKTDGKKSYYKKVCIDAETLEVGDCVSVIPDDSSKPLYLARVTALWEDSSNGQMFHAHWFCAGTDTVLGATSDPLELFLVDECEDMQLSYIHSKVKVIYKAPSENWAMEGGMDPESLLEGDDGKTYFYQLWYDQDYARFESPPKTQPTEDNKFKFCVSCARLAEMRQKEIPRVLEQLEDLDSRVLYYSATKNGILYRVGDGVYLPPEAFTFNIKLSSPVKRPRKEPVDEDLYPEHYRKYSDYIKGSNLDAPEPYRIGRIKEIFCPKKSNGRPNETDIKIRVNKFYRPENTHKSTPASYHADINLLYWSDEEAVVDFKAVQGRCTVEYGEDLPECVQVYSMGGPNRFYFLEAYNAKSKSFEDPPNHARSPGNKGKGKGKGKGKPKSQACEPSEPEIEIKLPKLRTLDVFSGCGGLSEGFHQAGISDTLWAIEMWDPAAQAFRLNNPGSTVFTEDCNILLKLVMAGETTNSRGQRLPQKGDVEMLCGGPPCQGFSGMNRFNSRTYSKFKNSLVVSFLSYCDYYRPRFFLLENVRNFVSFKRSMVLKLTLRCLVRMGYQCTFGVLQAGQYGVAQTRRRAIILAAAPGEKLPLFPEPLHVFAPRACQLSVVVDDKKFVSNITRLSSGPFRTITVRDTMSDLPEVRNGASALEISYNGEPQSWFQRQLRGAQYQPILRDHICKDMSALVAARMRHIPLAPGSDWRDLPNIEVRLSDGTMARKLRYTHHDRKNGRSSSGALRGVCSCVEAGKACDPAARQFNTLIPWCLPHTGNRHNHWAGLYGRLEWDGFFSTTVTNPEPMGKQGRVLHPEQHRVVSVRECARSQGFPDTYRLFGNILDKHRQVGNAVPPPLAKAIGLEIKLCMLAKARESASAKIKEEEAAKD

Structure (SMILES): COc1cc2nc(-c3cc(C)oc3C)cc(NCC3CCN(c4ncc(C(=O)NO)cn4)CC3)c2cc1OC [CM-1758, 2-[4-[[[2-(2,5-dimethyl-3-furyl)-6,7-dimethoxy-4-quinolyl]amino]methyl] -1-piperidyl]pyrimidine-5-carbohydroxamic acid]
- inhibition at 10 µM (DNMT1; 10 µM): 66%
- IC50 (DNMT1; read-out: DNMT1 IC50): 22.6 µM
- IC50 (HDAC8): 200 nM
- inhibition at 10 µM (HDAC8; 10 µM): 100%
- IC50 (HDAC11): 150 nM
- solubility at 24 h (Kinetic solubility): > 144 µg/mL
- CD11b expression in explanted tumors ([1]; ML-2 s.c., 10 mg/kg i.p.): significant increase in CD11b expression
- H3Ac levels in tumors ([1]; ML-2 s.c., 10 mg/kg i.p.): increase in H3Ac levels
- tumor growth ([1]; ML-2 s.c., 10 mg/kg i.p., 5 days on/2 off, 3 weeks): inhibited tumor growth significantly
- Tumor volume ([1]; day 0): 0
- Tumor volume ([1]; day 8): 47.3386 and 22.9378 and 56.1402 and 38.666 and 38.4941 and 0 and 12.669 and 19.4742
- Tumor volume ([1]; day 11): 71.6377 and 35.2331 and 55.0976 and 24.3685 and 43.9734 and 8.639 and 15.4625 and 6.7915
- Tumor volume ([1]; day 13): 158.593 and 184.271 and 192.133 and 111.517 and 131.043 and 16.1706 and 35.0775 and 32.6327
- Tumor volume ([1]; day 15): 338.357 and 436.616 and 344.697 and 149.062 and 276.144 and 73.6819 and 103.063 and 52.9756
- Tumor volume ([1]; day 18): 450.141 and 971.066 and 667.169 and 309.135 and 557.655 and 200.834 and 266.198 and 84.0917
- Tumor volume ([1]; day 20): 750.162 and 778.307 and 425.752 and 619.516 and 424.823 and 364.169 and 387.08 and 367.037
- Relative H3Ac/H3 total levels ([1]; after in vivo treatment, subcutaneous ML-2 mouse model, western blot, individual tumors): 1.2836 and 1.288 and 1.719 and 8.364 and 1.323 and 1.1332
- body weight of mice ([1]; day 4, in g (unit assumed)): 23.8 and 22.2 and 25.1 and 23.3 and 24.6 and 21 and 23.7 and 24.3
- body weight of mice ([1]; day 6, in g (unit assumed)): 23 and 20.6 and 24.5 and 22.4 and 23.6 and 21.2 and 22.8 and 24.2
- body weight of mice ([1]; day 8): 22.9 (2×) and 20.3 and 23.8 and 22.4 and 21.2 and 22 and 23.5
- body weight of mice ([1]; day 11, in g (unit assumed)): 23 and 22.4 and 24.2 and 23.7 and 23.9 and 21.1 and 23.2 and 25.2
- body weight of mice ([1]; day 13): 23 (2×) and 21.6 and 24.6 and 24 and 23.4 and 22 and 25.4
- body weight of mice ([1]; day 15): 22.8 and 22 and 24.5 and 23.6 (2×) and 20.9 and 22.4 and 24.7
- body weight of mice ([1]; day 18, in g (unit assumed)): 22.9 and 21.9 and 23.9 and 24 and 22.8 and 20.8 and 21.6 and 24.1
- body weight of mice ([1]; day 20): 22.1 and 20.8 (2×) and 23.3 (2×) and 19.4 and 19.9 and 23.7
- CD11b expression from tumors measured by q-PCR ([1]; tumors of the subcutaneous ML-2 model, individual tumors (Fig 3C)): 1.158 log10 (2-ΔΔCt) and 2.588 log10 (2-ΔΔCt) and 4.58 log10 (2-ΔΔCt) and 3.25 log10 (2-ΔΔCt) and 2.2558 log10 (2-ΔΔCt)
- CD11b expression in explanted tumors ([2]; MV4-11 s.c., 10 mg/kg i.p.): significant increase in CD11b expression
- H3Ac levels in tumors ([2]; MV4-11 s.c., 10 mg/kg i.p.): increase in H3Ac levels
- tumor growth ([2]; MV4-11 s.c., 10 mg/kg i.p. daily, 2 weeks): inhibited tumor growth significantly
- Tumor volume ([2]; day 0): 0
- Tumor volume ([2]; day 7): 3.017
- Tumor volume ([2]; day 9): 146.917 and 71.6651 and 143.551 and 106.303 and 28.6195 and 85.1833 and 49.7152 and 104.914 and 63.9744 and 234.732
- Tumor volume ([2]; day 12): 419.824 and 122.408 and 229.873 and 238.093 and 102.721 and 299.024 and 103.513 and 178.679 and 140.065 and 433.026
- Tumor volume ([2]; day 14): 415.95 and 158.115 and 375.793 and 401.985 and 154.443 and 348.449 and 102.044 and 262.858 and 231.325 and 547.206
- Relative H3Ac/H3 total levels ([2]; after in vivo treatment, subcutaneous MV4-11 mouse model, western blot, individual tumors): 1.267 and 1.234 and 1.332 and 1.244 and 1.416 and 1.49
- body weight of mice ([2]; day 1, in g (unit assumed)): 23.6 and 18.5 and 22.2 and 22.3 and 23.2 and 21.8 and 24.2 and 20.2 and 19.5 and 21.3
- body weight of mice ([2]; day 5): 21.3 and 16.3 and 21.5 (2×) and 21.2 and 22.1 and 23 and 20 (2×) and 20.2
- body weight of mice ([2]; day 7): 20.5 and 16.4 and 21.3 and 21.6 and 20.8 and 23.9 and 19.5 (2×) and 19.3 and 19.8
- body weight of mice ([2]; day 9, in g (unit assumed)): 21 and 17.1 and 21.6 and 21.1 and 21.7 and 20.2 and 23.4 and 19.3 and 19.8 and 20.4
- body weight of mice ([2]; day 12, in g (unit assumed)): 21.3 and 18 and 22.5 and 21.9 and 22.2 and 21.8 and 23.6 and 19.9 and 20.4 and 21.5
- body weight of mice ([2]; day 14): 21.4 and 17.3 and 21.1 and 21.6 (2×) and 21.8 and 23.6 and 20 and 20.5 and 21
- body weight of mice ([2]; day 16): 22.2 (2×) and 18.1 and 21.8 and 21.5 and 22.3 and 24.4 and 20.3 and 20.9 and 21.7
- CD11b expression, log10 (2-ΔΔCt) ([2]; tumors of the subcutaneous MV4-11 model, q-PCR, individual tumors): 0.854 and 1.2584 and 2.36 and 1.145 and 1.034
- CD11b in blood samples ([3]; MOLM-13 i.v., 10 mg/kg i.p.): significant induction of CD11b
- CD11b (%) ([3]; blood samples of mice engrafted intravenously with MOLM-13 cells, individual mice): 43.5% and 62.1% and 13.7% and 9.45% and 29.6% and 36.3% and 8.98% and 17.9% and 35.4% and 52.9% and 49.9%

— publication PMC11219871, “Epigenetic-based differentiation therapy for Acute Myeloid Leukemia” (Nature Communications, 2024)
